Assay results from patent publication US20230073777A1, “CYCLIC-AMP RESPONSE ELEMENT BINDING PROTEIN (CBP) AND/OR ADENOVIRAL E1A BINDING PROTEIN OF 300 KDA (P300) DEGRADATION COMPOUNDS AND METHODS OF USE” (CULLGEN (SHANGHAI), INC., priority 2019, published 2023).

Legend:
[1] = target: P300 (Homo sapiens, UniProt Q09472); test: Immunoblotting of P300 protein levels in LNCaP or 22RV1 cells; assay type: cell-based; set-up: LNCaP or 22RV1 cells that express CBP/P300 proteins were treated with GNE-781 or the bivalent compounds; endogenous in cells; host or cells: LNCaP (clone FGC) or 22RV1 cells; settings: percentage of inhibition of p300 at 10 nM (Table 3); read-out: Degradation (10 nM)
P300, sequence (Q09472 whole entry): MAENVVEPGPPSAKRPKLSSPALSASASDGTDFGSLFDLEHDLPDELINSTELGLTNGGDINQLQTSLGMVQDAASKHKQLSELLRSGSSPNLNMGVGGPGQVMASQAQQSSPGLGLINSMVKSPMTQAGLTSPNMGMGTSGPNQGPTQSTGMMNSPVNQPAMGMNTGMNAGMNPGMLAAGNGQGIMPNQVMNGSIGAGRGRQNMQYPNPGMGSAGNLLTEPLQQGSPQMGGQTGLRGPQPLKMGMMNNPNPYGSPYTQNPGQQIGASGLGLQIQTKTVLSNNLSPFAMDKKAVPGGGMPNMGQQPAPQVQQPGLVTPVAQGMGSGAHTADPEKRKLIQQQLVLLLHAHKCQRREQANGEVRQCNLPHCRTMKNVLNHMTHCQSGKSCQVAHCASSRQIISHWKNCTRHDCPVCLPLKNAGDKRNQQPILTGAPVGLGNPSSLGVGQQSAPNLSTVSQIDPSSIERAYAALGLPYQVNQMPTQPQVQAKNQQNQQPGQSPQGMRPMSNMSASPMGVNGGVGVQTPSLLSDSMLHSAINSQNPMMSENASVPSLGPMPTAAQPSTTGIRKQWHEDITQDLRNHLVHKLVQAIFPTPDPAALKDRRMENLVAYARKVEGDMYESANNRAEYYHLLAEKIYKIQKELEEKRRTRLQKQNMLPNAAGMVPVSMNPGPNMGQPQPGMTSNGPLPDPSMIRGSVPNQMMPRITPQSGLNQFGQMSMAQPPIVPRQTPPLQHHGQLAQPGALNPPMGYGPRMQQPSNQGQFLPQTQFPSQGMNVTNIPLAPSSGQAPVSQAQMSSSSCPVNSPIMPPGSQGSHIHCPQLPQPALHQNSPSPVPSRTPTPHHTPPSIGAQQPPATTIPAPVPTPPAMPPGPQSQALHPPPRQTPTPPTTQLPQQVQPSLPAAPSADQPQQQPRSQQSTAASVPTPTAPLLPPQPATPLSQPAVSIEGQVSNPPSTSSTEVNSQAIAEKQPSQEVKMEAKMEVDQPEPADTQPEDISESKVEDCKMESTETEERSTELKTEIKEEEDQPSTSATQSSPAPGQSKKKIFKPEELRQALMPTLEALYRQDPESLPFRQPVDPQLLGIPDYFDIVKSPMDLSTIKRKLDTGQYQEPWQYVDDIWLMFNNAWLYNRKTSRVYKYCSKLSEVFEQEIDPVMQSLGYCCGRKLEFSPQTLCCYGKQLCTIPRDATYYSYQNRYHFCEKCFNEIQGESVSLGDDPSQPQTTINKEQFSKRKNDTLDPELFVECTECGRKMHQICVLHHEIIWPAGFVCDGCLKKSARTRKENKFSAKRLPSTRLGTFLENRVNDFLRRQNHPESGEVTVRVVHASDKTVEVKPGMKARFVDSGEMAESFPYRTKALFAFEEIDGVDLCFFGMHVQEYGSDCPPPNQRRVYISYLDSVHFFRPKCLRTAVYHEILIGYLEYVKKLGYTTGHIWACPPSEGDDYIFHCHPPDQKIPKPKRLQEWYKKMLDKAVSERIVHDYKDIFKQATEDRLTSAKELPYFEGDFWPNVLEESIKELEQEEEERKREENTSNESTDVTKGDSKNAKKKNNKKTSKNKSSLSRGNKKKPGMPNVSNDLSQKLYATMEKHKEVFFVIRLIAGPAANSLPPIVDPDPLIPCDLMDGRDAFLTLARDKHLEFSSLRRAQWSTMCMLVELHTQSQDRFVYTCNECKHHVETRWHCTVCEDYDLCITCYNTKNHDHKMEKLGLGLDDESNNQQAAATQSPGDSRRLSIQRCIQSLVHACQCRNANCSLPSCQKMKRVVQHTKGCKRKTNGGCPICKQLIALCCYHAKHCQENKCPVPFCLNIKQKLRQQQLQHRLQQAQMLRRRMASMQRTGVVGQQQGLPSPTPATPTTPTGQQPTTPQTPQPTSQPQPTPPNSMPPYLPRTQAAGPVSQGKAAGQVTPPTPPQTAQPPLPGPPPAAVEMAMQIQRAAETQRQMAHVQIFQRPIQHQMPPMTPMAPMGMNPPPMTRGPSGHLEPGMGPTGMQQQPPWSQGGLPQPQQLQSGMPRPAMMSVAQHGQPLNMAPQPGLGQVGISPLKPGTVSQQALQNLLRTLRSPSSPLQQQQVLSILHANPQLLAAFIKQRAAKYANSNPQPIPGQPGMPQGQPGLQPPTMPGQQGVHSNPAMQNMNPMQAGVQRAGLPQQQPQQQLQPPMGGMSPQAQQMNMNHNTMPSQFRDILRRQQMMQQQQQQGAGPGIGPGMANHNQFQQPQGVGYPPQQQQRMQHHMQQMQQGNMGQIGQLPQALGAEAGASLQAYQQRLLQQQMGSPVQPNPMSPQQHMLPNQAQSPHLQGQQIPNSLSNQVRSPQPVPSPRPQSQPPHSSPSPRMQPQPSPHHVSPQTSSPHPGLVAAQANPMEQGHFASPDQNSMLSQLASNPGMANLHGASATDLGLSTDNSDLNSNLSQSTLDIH
Method in brief: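 P300/CBP levels quantified by chemiluminescent immunoblot band densitometry, normalized against tubulin or vinculin loading controls. Lysates came from LNCaP or 22RV1 cells exposed to compounds or DMSO vehicle for indicated times.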

[2] = test system: LNCaP cells; test: LNCaP cell viability assay (CellTiter-Glo); assay type: cell-based; settings: Homo sapiens, 72 h; LNCaP prostate cancer cell viability inhibition, 3 days, CellTiter-Glo (Table 3)
Method in brief: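 Three-day treatment of LNCaP cells (5000 per well) across a 12-point, 3-fold dilution series starting at 10 μM. ATP luminescence (CellTiter-Glo) relative to untreated controls gave dose-response curves fitted nonlinearly for IC50.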

| Compound | inhibition at 0.01 µM [1] [%] | IC50 [2] [nM] |
| --- | --- | --- |
| CNC(=O)N1CCc2c(c(N3CCCc4cc(-c5cnn(C)c5)c(C(F)F)cc43)nn2C2CCN(C(=O)CCCCC(=O)N[C@H](C(=O)N3C[C@H](O)C[C@H]3C(=O)NCc3ccc(-c4scnc4C)cc3)C(C)(C)C)CC2)C1 [P-058, 3-(7-(Difluoromethyl)-6-(1-methyl-1H-pyrazol-4-yl)-3,4-dihydroquinolin-1(2H)-yl)-1-(1-(6-(((S)-1-((2S,4R)-4-hydroxy-2-((4-(4-methylthiazol-5-yl)benzyl)carbamoyl)pyrrolidin-1-yl)-3,3-dimethyl-1-oxobutan-2-yl)amino)-6-oxohexanoyl)piperidin-4-yl)-N-methyl-1,4,6,7-tetrahydro-5H-pyrazolo[4,3-c]pyridine-5-carboxamide] | < 20 | 67.8 |
| CNC(=O)N1CCc2c(c(N3CCCc4cc(-c5cnn(C)c5)c(C(F)F)cc43)nn2C2CCN(C(=O)CCCCCC(=O)N[C@H](C(=O)N3C[C@H](O)C[C@H]3C(=O)NCc3ccc(-c4scnc4C)cc3)C(C)(C)C)CC2)C1 [P-059, 3-(7-(Difluoromethyl)-6-(1-methyl-1H-pyrazol-4-yl)-3,4-dihydroquinolin-1(2H)-yl)-1-(1-(7-(((S)-1-((2S,4R)-4-hydroxy-2-((4-(4-methylthiazol-5-yl)benzyl)carbamoyl)pyrrolidin-1-yl)-3,3-dimethyl-1-oxobutan-2-yl)amino)-7-oxoheptanoyl)piperidin-4-yl)-N-methyl-1,4,6,7-tetrahydro-5H-pyrazolo[4,3-c]pyridine-5-carboxamide] | < 20 | 60.6 |
| CNC(=O)N1CCc2c(c(N3CCCc4cc(-c5cnn(C)c5)c(C(F)F)cc43)nn2C2CCN(C(=O)CCCCCCC(=O)N[C@H](C(=O)N3C[C@H](O)C[C@H]3C(=O)NCc3ccc(-c4scnc4C)cc3)C(C)(C)C)CC2)C1 [P-060, 3-(7-(Difluoromethyl)-6-(1-methyl-1H-pyrazol-4-yl)-3,4-dihydroquinolin-1(2H)-yl)-1-(1-(8-(((S)-1-((2S,4R)-4-hydroxy-2-((4-(4-methylthiazol-5-yl)benzyl)carbamoyl)pyrrolidin-1-yl)-3,3-dimethyl-1-oxobutan-2-yl)amino)-8-oxooctanoyl)piperidin-4-yl)-N-methyl-1,4,6,7-tetrahydro-5H-pyrazolo[4,3-c]pyridine-5-carboxamide] | < 20 | 59.1 |
| CNC(=O)N1CCc2c(c(N3CCCc4cc(-c5cnn(C)c5)c(C(F)F)cc43)nn2C2CCN(C(=O)CCCCCCCC(=O)N[C@H](C(=O)N3C[C@H](O)C[C@H]3C(=O)NCc3ccc(-c4scnc4C)cc3)C(C)(C)C)CC2)C1 [P-061, 3-(7-(Difluoromethyl)-6-(1-methyl-1H-pyrazol-4-yl)-3,4-dihydroquinolin-1(2H)-yl)-1-(1-(9-(((S)-1-((2S,4R)-4-hydroxy-2-((4-(4-methylthiazol-5-yl)benzyl)carbamoyl)pyrrolidin-1-yl)-3,3-dimethyl-1-oxobutan-2-yl)amino)-9-oxononanoyl)piperidin-4-yl)-N-methyl-1,4,6,7-tetrahydro-5H-pyrazolo[4,3-c]pyridine-5-carboxamide] | < 20 | 81.3 |
| CNC(=O)N1CCc2c(c(N3CCCc4cc(-c5cnn(C)c5)c(C(F)F)cc43)nn2C2CCN(C(=O)CCCCCCCCC(=O)N[C@H](C(=O)N3C[C@H](O)C[C@H]3C(=O)NCc3ccc(-c4scnc4C)cc3)C(C)(C)C)CC2)C1 [P-062, 3-(7-(Difluoromethyl)-6-(1-methyl-1H-pyrazol-4-yl)-3,4-dihydroquinolin-1(2H)-yl)-1-(1-(10-(((S)-1-((2S,4R)-4-hydroxy-2-((4-(4-methylthiazol-5-yl)benzyl)carbamoyl)pyrrolidin-1-yl)-3,3-dimethyl-1-oxobutan-2-yl)amino)-10-oxodecanoyl)piperidin-4-yl)-N-methyl-1,4,6,7-tetrahydro-5H-pyrazolo[4,3-c]pyridine-5-carboxamide] | 20 to 50 | 35 |
| CNC(=O)N1CCc2c(c(N3CCCc4cc(-c5cnn(C)c5)c(C(F)F)cc43)nn2C2CCN(C(=O)CCCCCCCCCC(=O)N[C@H](C(=O)N3C[C@H](O)C[C@H]3C(=O)NCc3ccc(-c4scnc4C)cc3)C(C)(C)C)CC2)C1 [P-063, 3-(7-(Difluoromethyl)-6-(1-methyl-1H-pyrazol-4-yl)-3,4-dihydroquinolin-1(2H)-yl)-1-(1-(11-(((S)-1-((2S,4R)-4-hydroxy-2-((4-(4-methylthiazol-5-yl)benzyl)carbamoyl)pyrrolidin-1-yl)-3,3-dimethyl-1-oxobutan-2-yl)amino)-11-oxoundecanoyl)piperidin-4-yl)-N-methyl-1,4,6,7-tetrahydro-5H-pyrazolo[4,3-c]pyridine-5-carboxamide] | 20 to 50 | 28.9 |
| CNC(=O)N1CCc2c(c(N3CCCc4cc(-c5cnn(C)c5)c(C(F)F)cc43)nn2C2CCN(C(=O)COCC(=O)N[C@H](C(=O)N3C[C@H](O)C[C@H]3C(=O)NCc3ccc(-c4scnc4C)cc3)C(C)(C)C)CC2)C1 [P-064, 3-(7-(Difluoromethyl)-6-(1-methyl-1H-pyrazol-4-yl)-3,4-dihydroquinolin-1(2H)-yl)-1-(1-(2-(2-(((S)-1-((2S,4R)-4-hydroxy-2-((4-(4-methylthiazol-5-yl)benzyl)carbamoyl)pyrrolidin-1-yl)-3,3-dimethyl-1-oxobutan-2-yl)amino)-2-oxoethoxy)acetyl)piperidin-4-yl)-N-methyl-1,4,6,7-tetrahydro-5H-pyrazolo[4,3-c]pyridine-5-carboxamide] | < 20 | 57.5 |
| CNC(=O)N1CCc2c(c(N3CCCc4cc(-c5cnn(C)c5)c(C(F)F)cc43)nn2C2CCN(C(=O)COCCOCC(=O)N[C@H](C(=O)N3C[C@H](O)C[C@H]3C(=O)NCc3ccc(-c4scnc4C)cc3)C(C)(C)C)CC2)C1 [P-066, 3-(7-(Difluoromethyl)-6-(1-methyl-1H-pyrazol-4-yl)-3,4-dihydroquinolin-1(2H)-yl)-1-(1-(2-(2-(2-(((S)-1-((2S,4R)-4-hydroxy-2-((4-(4-methylthiazol-5-yl)benzyl)carbamoyl)pyrrolidin-1-yl)-3,3-dimethyl-1-oxobutan-2-yl)amino)-2-oxoethoxy)ethoxy)acetyl)piperidin-4-yl)-N-methyl-1,4,6,7-tetrahydro-5H-pyrazolo[4,3-c]pyridine-5-carboxamide] | < 20 | 135 |
| CNC(=O)N1CCc2c(c(N3CCCc4cc(-c5cnn(C)c5)c(C(F)F)cc43)nn2C2CCN(C(=O)CCOCCOCCC(=O)N[C@H](C(=O)N3C[C@H](O)C[C@H]3C(=O)NCc3ccc(-c4scnc4C)cc3)C(C)(C)C)CC2)C1 [P-067, 3-(7-(Difluoromethyl)-6-(1-methyl-1H-pyrazol-4-yl)-3,4-dihydroquinolin-1(2H)-yl)-1-(1-(3-(2-(3-(((S)-1-((2S,4R)-4-hydroxy-2-((4-(4-methylthiazol-5-yl)benzyl)carbamoyl)pyrrolidin-1-yl)-3,3-dimethyl-1-oxobutan-2-yl)amino)-3-oxopropoxy)ethoxy)propanoyl)piperidin-4-yl)-N-methyl-1,4,6,7-tetrahydro-5H-pyrazolo[4,3-c]pyridine-5-carboxamide] | < 20 | 32 |
| CNC(=O)N1CCc2c(c(N3CCCc4cc(-c5cnn(C)c5)c(C(F)F)cc43)nn2C2CCN(C(=O)COCCOCCOCC(=O)N[C@H](C(=O)N3C[C@H](O)C[C@H]3C(=O)NCc3ccc(-c4scnc4C)cc3)C(C)(C)C)CC2)C1 [P-068, 3-(7-(Difluoromethyl)-6-(1-methyl-1H-pyrazol-4-yl)-3,4-dihydroquinolin-1(2H)-yl)-1-(1-((S)-13-((2S,4R)-4-hydroxy-2-((4-(4-methylthiazol-5-yl)benzyl)carbamoyl)pyrrolidine-1-carbonyl)-14,14-dimethyl-11-oxo-3,6,9-trioxa-12-azapentadecanoyl)piperidin-4-yl)-N-methyl-1,4,6,7-tetrahydro-5H-pyrazolo[4,3-c]pyridine-5-carboxamide] | < 20 | 30.8 |
| CNC(=O)N1CCc2c(c(N3CCCc4cc(-c5cnn(C)c5)c(C(F)F)cc43)nn2C2CCN(C(=O)CCOCCOCCOCCC(=O)N[C@H](C(=O)N3C[C@H](O)C[C@H]3C(=O)NCc3ccc(-c4scnc4C)cc3)C(C)(C)C)CC2)C1 [P-069, 3-(7-(Difluoromethyl)-6-(1-methyl-1H-pyrazol-4-yl)-3,4-dihydroquinolin-1(2H)-yl)-1-(1-((S)-15-((2S,4R)-4-hydroxy-2-((4-(4-methylthiazol-5-yl)benzyl)carbamoyl)pyrrolidine-1-carbonyl)-16,16-dimethyl-13-oxo-4,7,10-trioxa-14-azaheptadecanoyl)piperidin-4-yl)-N-methyl-1,4,6,7-tetrahydro-5H-pyrazolo[4,3-c]pyridine-5-carboxamide] | < 20 | 36.1 |
| CNC(=O)N1CCc2c(c(N3CCCc4cc(-c5cnn(C)c5)c(C(F)F)cc43)nn2C2CCN(C(=O)CCOCCOCCOCCOCCC(=O)N[C@H](C(=O)N3C[C@H](O)C[C@H]3C(=O)NCc3ccc(-c4scnc4C)cc3)C(C)(C)C)CC2)C1 [P-070, 3-(7-(Difluoromethyl)-6-(1-methyl-1H-pyrazol-4-yl)-3,4-dihydroquinolin-1(2H)-yl)-1-(1-((S)-18-((2S,4R)-4-hydroxy-2-((4-(4-methylthiazol-5-yl)benzyl)carbamoyl)pyrrolidine-1-carbonyl)-19,19-dimethyl-16-oxo-4,7,10,13-tetraoxa-17-azaicosanoyl)piperidin-4-yl)-N-methyl-1,4,6,7-tetrahydro-5H-pyrazolo[4,3-c]pyridine-5-carboxamide] | < 20 | 31.9 |
